Patent US20250092036A1, “COMPOUNDS AND COMPOSITIONS FOR MODULATING THE ACTIVITY OF ERK” (Novartis AG, priority 2023, published 2025)

How the values were obtained:
[1] = biological target: T1, nanobit-large-bit-ERK2 and nanobit-small-bit-PEA15 in WM793 cells (Homo sapiens, UniProt P28482); assay: NanoBiT assay; assay type: cell-based; details: WM793 nanobit stable cell line, overnight incubation; read-out: NanoBiT qualified absolute AC50
T1 construct: expressed in transfected cells
How it was run: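 WM793 cells stably expressing LgBiT-ERK2 and SmBiT-PEA15, treated overnight at 37 °C with a 10-point 3-fold dilution series, top final 30 μM. Luminescence was read and normalized to DMSO wells to give percent inhibition. IC50 was fitted from dose-response curves.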

[2] = biological target: T2, ERK2[2-360(p-T185/p-Y187)]-Avi (Homo sapiens, UniProt P28482); assay: Biochemical assay (HTRF competition assay); assay type: binding; details: HTRF competition with Example 15 probe, overnight at RT; read-out: Biochemical qualified AC50
T2 construct: 400 pM ERK2[2-360(p-T185/p-Y187)]-Avi was added to the plate

[3] = tested on: WM793 BRAFV600E tumor xenograft; assay: Anti-tumor activity and tolerability in WM793 BRAFV600E tumor xenograft in nude mice; assay type: in vivo
WM793 cells = assay: Cell proliferation assay (CellTiter-Glo); assay type: cell-based; details: Homo sapiens, WM793, 72 h, 3 d, read-out: Cell proliferation qualified AC50
How it was run: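 WM793 cells in RPMI + 10% FBS, 750 cells/well, treated 3 d at 37° C with 10-point 3-fold dilutions (highest 20 μM). CellTiter-Glo luminescence at Day 0 and Day 3; percent growth inhibition normalized to Day 3 DMSO wells and Day 0 counts, and IC50 taken from dose-response curves.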

T1 sequence (P28482 whole entry): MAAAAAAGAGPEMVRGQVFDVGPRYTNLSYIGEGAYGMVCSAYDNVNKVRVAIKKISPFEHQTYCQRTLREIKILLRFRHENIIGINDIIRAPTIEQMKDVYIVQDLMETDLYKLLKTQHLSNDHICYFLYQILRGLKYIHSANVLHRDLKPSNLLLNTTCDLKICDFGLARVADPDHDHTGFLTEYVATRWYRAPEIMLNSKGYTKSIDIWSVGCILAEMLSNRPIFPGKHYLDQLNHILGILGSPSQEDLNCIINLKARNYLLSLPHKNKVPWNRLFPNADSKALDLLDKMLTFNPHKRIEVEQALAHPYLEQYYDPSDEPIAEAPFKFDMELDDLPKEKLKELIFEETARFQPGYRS
T2 sequence (P28482 2-360 limits assumed): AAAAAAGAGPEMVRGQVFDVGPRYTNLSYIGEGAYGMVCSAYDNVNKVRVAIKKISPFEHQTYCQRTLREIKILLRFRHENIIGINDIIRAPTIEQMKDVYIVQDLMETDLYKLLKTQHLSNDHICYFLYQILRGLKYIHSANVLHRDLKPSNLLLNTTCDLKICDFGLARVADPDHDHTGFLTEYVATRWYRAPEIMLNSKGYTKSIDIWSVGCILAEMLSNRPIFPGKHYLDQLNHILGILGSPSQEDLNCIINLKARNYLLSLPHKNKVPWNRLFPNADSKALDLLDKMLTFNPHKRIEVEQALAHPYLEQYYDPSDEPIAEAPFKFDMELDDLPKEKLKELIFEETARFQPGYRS

SMILES: CN1C[C@@H](F)[C@@H](NC(=O)C2(c3ccc(F)cc3)CCN(C(=O)c3c(C=O)n(CC4CCOCC4)c4ccc(Cl)cc34)CC2)C1 [Example 13, 1-(5-chloro-2-formyl-1-((tetrahydro-2H-pyran-4-yl)methyl)-1H-indole-3-carbonyl)-N-((3S,4R)-4-fluoro-1-methylpyrrolidin-3-yl)-4-(4-fluorophenyl)piperidine-4-carboxamide]
- AC50 [1]: 56 nM
- AC50 [2]: 0.48 nM
- animals sacrificed due to increased body weight loss ([3]; highest dosing group (300 mg/kg bid 2 day on, 1 day off)): One mouse at the highest dosing group was sacrificed on day 11
- anti-tumor activity (tumor volume) at the highest dose ([3]; per os, 300 mg/kg bid 2 day on, 1 day off, 14 days): regression
- anti-tumor activity (tumor volume) ([3]; per os, 30, 75, 150 mg/kg bid and 300 mg/kg bid 2 day on, 1 day off, 14 days): dose dependent antitumor activity
- Percent body weight change following first dose / tolerability ([3]; per os, 30-300 mg/kg bid, 14 days): minimal body weight loss and is well tolerated
- AC50 (WM793 cells): 54 nM
